The structures appear in SMILES notation.

The assay concerns the target T1, Tyrosine-protein phosphatase non-receptor type 1 (Homo sapiens, UniProt P18031).
T1 sequence (P18031 whole entry): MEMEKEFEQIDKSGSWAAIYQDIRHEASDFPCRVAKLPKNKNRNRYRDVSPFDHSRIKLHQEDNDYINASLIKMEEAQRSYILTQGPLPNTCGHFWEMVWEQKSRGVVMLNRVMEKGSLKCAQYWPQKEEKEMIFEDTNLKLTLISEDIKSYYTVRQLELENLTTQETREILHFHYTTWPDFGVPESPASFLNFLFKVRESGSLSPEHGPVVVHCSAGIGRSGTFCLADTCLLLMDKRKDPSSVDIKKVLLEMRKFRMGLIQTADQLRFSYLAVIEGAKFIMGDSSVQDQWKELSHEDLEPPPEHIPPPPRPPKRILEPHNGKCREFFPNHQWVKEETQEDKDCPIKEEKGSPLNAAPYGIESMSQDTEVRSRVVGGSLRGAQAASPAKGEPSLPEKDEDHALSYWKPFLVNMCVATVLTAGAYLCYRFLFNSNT
Put plainly: Inhibition of human PTP1B.
On to `O=C1Oc2cc(O)c3c(c2[C@@]12c1c(O)cc(O)cc1O[C@@H]2c1ccc(O)cc1)O[C@H](c1ccc(O)cc1)[C@H](O)C3`, for which the midpoint of inhibition, the IC50, lay at 8.1 µM.

As for `O=C1Oc2cc(O)c3c(c2[C@@]12c1c(O)cc(O)cc1O[C@H]2c1ccc(O)cc1)O[C@H](c1ccc(O)cc1)[C@@H](O)C3`, it took 4.6 µM to reach half-maximal inhibition (IC50).

Consider `O=C1Oc2cc(O)c3c(c2[C@]12c1c(O)cc(O)cc1O[C@H]2c1ccc(O)cc1)O[C@H](c1ccc(O)cc1)[C@@H](O)C3`, for which half-maximal inhibition (IC50) was put at 11.2 µM.

`O=C1Oc2cc(O)c3c(c2[C@]12c1c(O)cc(O)cc1O[C@@H]2c1ccc(O)cc1)O[C@H](c1ccc(O)cc1)[C@@H](O)C3`: inhibition was half-maximal at 3.3 µM (IC50).

Consider `O=C1Oc2cc(O)c3c(c2[C@@]12c1c(O)cc(O)cc1O[C@@H]2c1ccc(O)cc1)O[C@H](c1ccc(O)cc1)[C@@H](O)C3`, for which the concentration for half-maximal inhibition (IC50) (usually the concentration needed to halve the response being measured) turned out to be 17.1 µM.

In turn, `O=C1Oc2cc(O)c3c(c2[C@]12c1c(O)cc(O)cc1O[C@@H]2c1ccc(O)cc1)O[C@H](c1ccc(O)cc1)[C@H](O)C3` [LARIXINOL] gave an IC50 of 12.9 µM.

Values taken from ChEMBL document CHEMBL4610051, “Spirobiflavonoid stereoisomers from the endangered conifer Glyptostrobus pensilis and their protein tyrosine phosphatase 1B inhibitory activity” (Bioorg Med Chem Lett, 2020).
